Reference: patent publication US10246444B2, “1,2-dithiolane and dithiol compounds useful in treating mutant EGFR-mediated diseases and conditions” (Sabila Biosciences LLC, priority 2017, dated 2019)
Where two headings read alike, the source gives them in different places.

Key:
EGFR (L858R) [1] = target: T1, EGFR (L858R) (Homo sapiens (Human), UniProt P00533, L858R); test: KINOMEscan competition binding assay (Kd); details: read-out: Kd Activity Level (EGFR L858R)
Experimental: (§1) The assay is performed by combining three components: DNA-tagged kinase; immobilized ligand; and a test compound. The ability of the test compound to compete with the immobilized ligand is measured via quantitative PCR of the DNA tag.
(§2) For most assays, kinase-tagged T7 phage strains were prepared in an E. coli host derived from the BL21 strain. E. coli were grown to log-phase and infected with T7 phage and incubated with shaking at 32° C. until lysis. The lysates were centrifuged and filtered to remove cell debris. The remaining kinases were produced in HEK-293 cells and subsequently tagged with DNA for qPCR detection. Streptavidin-coated magnetic beads were treated with biotinylated small molecule ligands for 30 minutes at room temperature to generate affinity resins for kinase assays. The liganded beads were blocked with excess biotin and washed with blocking buffer (SeaBlock (Pierce), 1% BSA, 0.05% Tween 20, 1 mM DTT) to remove unbound ligand and to reduce nonspecific binding. […] All reactions were performed in polystyrene 96-well plates in a final volume of 0.135 ml. […] The kinase concentration in the eluates was measured by qPCR.

EGFR WT (wild type EGFR) = EGFR WT (wild type EGFR) (Homo sapiens (Human), UniProt P00533); test: KINOMEscan competition binding assay (Kd); details: read-out: Kd Activity Level (EGFR WT)
Experimental: as §1, §2

EGFR (L858R) [2] = target: T1, EGFR (L858R); test: KinaseSeeker rabbit reticulocyte lysate competition binding assay (IC50)
Experimental: (§3) Luminescence readout translates into a highly sensitive and robust assay with low background and minimal interference from test compounds.
(§4) 10 mM stock solutions of test compounds were serially diluted in DMSO to make assay stocks. Prior to initiating IC50 determinations, the test compounds were evaluated for false positive against split-luciferase.
(§5) For kinase assays, Cfluc-kinase was translated along with Fos-Nfluc using a cell-free system (rabbit reticulocyte lysate) at 30° C. for 90 min. 24 uL aliquot of this lysate containing either 1 uL of DMSO (for no-inhibitor control) or compound solution in DMSO was incubated for 30 minutes at room temperature followed by 1 hour in presence of a kinase specific probe. 80 uL of luciferin assay reagent was added to each solution and luminescence was immediately measured on a luminometer.
(§6) The % Activity was plotted against compound concentration and the IC50 was determined for each compound using a 7-point curve (Jester, B. W.; et. al. J. Am. Chem. Soc. 2010, 132, 11727-11735. Jester, B. W.; et. al. J. Med. Chem. 2012, 55, 1526-1537).

EGFR E746-A750del = EGFR E746-A750del (Homo sapiens (Human), UniProt P00533, DEL746-750); test: KINOMEscan competition binding assay (Kd); details: KINOMEscan binding constant; read-out: Kd Activity Level (EGFR E746-A750del)
Experimental: as §1, §2

EGFR WT = EGFR WT (Homo sapiens (Human), UniProt P00533); test: KinaseSeeker rabbit reticulocyte lysate competition binding assay (IC50)
Sequence of EGFR WT (P00533 25-1210): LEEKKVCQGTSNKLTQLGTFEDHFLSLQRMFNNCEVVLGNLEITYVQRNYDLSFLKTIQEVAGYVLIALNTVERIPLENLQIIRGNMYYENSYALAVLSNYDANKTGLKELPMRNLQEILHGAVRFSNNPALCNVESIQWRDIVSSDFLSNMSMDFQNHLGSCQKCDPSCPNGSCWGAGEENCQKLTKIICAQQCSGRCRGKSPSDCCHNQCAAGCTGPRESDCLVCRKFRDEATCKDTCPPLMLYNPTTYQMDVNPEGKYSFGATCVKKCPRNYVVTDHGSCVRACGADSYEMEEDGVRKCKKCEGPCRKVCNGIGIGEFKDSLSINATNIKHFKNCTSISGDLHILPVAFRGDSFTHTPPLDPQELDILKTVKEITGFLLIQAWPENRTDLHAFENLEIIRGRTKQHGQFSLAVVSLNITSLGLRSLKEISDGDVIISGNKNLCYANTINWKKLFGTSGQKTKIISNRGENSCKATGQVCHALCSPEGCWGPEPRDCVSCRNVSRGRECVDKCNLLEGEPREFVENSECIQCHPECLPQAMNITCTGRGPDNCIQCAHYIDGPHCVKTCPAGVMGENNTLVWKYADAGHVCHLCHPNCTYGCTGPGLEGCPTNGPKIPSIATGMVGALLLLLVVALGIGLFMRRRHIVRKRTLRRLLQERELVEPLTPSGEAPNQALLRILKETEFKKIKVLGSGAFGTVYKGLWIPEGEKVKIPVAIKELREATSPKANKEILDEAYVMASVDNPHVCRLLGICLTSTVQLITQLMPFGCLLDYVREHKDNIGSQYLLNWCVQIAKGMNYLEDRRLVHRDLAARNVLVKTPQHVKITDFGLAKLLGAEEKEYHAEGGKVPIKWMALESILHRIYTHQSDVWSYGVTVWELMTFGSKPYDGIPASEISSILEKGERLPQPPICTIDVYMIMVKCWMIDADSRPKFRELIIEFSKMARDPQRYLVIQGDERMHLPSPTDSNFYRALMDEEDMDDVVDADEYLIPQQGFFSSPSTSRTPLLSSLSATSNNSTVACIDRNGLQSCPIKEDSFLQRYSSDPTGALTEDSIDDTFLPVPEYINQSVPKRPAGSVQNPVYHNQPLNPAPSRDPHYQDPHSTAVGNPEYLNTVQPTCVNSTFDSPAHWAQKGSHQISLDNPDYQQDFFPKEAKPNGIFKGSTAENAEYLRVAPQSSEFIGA
Experimental: as §3, §4, §5, §6

HER2 = HER2 (Homo sapiens (Human), UniProt P04626); test: as above
Sequence of HER2 (P04626 23-1255): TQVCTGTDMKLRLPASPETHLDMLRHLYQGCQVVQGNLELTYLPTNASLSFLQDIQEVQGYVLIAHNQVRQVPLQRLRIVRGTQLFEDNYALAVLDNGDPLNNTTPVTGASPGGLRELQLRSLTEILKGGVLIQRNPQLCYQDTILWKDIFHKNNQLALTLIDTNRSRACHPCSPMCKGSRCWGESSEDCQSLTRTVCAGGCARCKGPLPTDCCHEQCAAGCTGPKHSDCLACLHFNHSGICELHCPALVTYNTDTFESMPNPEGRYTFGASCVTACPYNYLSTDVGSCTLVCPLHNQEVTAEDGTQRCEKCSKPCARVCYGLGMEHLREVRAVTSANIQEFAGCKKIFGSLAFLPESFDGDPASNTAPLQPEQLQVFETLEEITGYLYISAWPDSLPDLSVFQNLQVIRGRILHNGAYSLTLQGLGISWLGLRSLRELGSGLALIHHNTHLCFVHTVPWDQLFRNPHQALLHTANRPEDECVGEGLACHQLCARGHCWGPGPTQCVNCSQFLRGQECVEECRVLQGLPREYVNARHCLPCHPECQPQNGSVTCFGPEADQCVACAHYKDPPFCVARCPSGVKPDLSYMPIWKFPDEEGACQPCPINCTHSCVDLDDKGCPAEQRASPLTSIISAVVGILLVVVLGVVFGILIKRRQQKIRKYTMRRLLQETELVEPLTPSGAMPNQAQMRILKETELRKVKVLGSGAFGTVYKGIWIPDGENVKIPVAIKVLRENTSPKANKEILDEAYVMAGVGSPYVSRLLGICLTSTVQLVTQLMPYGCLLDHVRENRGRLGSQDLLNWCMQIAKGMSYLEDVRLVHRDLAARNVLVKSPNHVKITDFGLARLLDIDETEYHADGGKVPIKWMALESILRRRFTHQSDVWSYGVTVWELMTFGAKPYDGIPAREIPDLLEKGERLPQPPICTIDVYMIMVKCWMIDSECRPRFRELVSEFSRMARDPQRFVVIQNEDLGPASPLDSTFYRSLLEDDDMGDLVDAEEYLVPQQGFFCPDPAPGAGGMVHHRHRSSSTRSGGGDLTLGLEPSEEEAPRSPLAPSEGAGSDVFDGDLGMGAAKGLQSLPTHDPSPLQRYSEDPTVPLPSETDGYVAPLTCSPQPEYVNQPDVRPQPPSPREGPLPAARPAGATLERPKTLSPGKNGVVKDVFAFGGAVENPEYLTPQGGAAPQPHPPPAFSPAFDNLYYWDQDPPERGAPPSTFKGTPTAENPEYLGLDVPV
Experimental: as §3, §4, §5, §6

EGFR L858R/T790M = EGFR L858R/T790M (Homo sapiens (Human), UniProt P00533, L858R/T790M); test: KINOMEscan competition binding assay (Kd); details: KINOMEscan binding constant; read-out: Kd Activity Level (EGFR L858R/T790M)
Sequence of EGFR L858R/T790M (P00533 25-1210 T790M/L858R): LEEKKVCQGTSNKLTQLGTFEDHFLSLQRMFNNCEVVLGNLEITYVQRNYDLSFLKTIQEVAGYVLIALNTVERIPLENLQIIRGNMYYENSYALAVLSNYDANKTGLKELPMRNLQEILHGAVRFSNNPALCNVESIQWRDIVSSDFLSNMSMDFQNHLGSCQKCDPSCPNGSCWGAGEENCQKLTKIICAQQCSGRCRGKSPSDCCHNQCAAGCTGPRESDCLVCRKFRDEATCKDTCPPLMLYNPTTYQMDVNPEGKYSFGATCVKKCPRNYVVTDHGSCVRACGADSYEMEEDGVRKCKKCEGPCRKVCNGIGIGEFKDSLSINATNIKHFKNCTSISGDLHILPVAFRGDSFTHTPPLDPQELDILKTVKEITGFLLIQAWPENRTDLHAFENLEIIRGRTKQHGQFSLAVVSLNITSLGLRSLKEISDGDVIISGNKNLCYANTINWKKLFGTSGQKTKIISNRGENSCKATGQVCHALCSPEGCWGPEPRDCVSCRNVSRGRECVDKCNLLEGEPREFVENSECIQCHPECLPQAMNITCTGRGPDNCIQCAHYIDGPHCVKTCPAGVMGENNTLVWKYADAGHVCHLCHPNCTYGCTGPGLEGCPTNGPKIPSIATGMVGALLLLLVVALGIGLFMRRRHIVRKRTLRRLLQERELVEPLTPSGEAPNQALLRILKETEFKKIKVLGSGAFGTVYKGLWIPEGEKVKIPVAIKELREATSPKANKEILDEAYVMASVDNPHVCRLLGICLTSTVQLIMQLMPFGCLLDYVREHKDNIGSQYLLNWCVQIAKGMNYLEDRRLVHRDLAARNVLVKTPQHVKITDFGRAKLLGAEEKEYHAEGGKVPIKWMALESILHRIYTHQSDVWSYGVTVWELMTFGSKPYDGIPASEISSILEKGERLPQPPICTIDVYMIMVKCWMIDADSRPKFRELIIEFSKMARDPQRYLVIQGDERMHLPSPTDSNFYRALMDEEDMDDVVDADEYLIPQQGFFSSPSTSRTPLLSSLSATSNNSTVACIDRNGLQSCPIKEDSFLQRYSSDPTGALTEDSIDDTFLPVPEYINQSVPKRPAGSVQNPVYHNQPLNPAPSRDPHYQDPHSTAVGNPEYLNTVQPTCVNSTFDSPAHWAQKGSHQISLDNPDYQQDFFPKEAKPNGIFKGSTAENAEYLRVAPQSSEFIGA
Experimental: as §1, §2

EGFR S752-I759del = EGFR S752-I759del (Homo sapiens (Human), UniProt P00533, DEL752-759); test: KINOMEscan competition binding assay (Kd); details: KINOMEscan binding constant; read-out: Kd Activity Level (EGFR S752-I759del)
Sequence of EGFR S752-I759del (P00533 other isoform, or with tags, fused parts or gaps del 1-668/del 752-759/del 1012-1210 limits assumed): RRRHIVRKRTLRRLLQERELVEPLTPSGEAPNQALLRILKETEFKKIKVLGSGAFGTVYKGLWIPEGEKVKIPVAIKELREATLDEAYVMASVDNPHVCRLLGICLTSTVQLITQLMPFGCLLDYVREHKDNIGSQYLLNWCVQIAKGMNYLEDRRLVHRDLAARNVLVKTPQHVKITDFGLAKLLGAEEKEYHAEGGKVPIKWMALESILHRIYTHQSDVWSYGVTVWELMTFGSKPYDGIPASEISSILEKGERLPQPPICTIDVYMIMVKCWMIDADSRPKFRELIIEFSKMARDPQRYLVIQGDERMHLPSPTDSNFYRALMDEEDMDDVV
Experimental: as §1, §2

[3] = read-out: IC50 Activity level EGFR L858R, KinaseSeeker, Table 18

T1 sequence (P00533 25-1210 L858R): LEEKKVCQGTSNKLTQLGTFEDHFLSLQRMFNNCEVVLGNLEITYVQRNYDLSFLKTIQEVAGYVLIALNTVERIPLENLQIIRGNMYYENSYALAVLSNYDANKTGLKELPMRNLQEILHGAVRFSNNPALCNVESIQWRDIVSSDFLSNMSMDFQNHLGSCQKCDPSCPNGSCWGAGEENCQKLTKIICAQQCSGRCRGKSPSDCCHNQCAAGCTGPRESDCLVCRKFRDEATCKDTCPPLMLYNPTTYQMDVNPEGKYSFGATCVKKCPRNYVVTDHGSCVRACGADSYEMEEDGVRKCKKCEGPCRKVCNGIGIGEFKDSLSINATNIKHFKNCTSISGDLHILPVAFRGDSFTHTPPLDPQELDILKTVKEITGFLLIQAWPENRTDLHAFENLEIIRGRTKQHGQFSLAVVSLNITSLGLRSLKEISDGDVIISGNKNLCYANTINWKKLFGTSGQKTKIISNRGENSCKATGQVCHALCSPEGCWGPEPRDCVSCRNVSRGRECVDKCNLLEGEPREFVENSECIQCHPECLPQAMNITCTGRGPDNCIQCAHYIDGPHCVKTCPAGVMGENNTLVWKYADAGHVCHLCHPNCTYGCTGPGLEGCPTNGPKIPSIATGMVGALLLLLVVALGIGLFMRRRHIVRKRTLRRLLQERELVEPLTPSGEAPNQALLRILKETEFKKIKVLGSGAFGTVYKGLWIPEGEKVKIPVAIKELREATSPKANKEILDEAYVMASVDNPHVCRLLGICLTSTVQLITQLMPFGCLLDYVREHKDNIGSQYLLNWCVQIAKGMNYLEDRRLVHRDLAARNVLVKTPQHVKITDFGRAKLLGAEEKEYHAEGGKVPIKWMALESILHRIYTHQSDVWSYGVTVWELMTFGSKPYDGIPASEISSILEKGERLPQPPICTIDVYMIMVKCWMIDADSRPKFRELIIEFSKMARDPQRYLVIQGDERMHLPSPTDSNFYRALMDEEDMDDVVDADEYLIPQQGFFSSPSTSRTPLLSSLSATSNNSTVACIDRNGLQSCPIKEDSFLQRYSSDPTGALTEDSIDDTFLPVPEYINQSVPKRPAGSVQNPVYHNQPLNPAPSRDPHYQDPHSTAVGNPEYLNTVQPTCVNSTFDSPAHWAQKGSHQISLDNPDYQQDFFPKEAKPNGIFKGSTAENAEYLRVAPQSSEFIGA

Kd (EGFR (L858R) [1]) | Kd (EGFR WT (wild type EGFR)) | IC50 (EGFR (L858R) [2]) | IC50 (EGFR WT) | SMILES | other results
1 to 99 nM | 1 to 99 nM | – | – | CC1(C)OC[C@H](COc2cc3ncc(C#N)c(Nc4ccc(OCc5cccc(F)c5)c(Cl)c4)c3cc2NC(=O)CC2CCSS2)O1 (stereo partly drawn) [Example 79, N-(4-((3-Chloro-4-((3-fluorobenzyl)oxy)phenyl)amino)-3-cyano-7-(((S)-2,2-dimethyl-1,3-dioxolan-4-yl)methoxy)quinolin-6-yl)-2-(1,2-dithiolan-3-yl)acetamide] | –
1 to 99 nM | 1 to 99 nM | – | – | CC1(C)OC[C@H](COc2cc3ncc(C#N)c(Nc4ccc(OCc5cccc(F)c5)c(Cl)c4)c3cc2NC(=O)CC2CCSS2)O1 (single isomer, unassigned; isomer 2) [84 isomer 2] | –
– | – | – | – | CC(=O)Nc1ccc2ncc(C#N)c(Nc3ccc(OCc4cccc(F)c4)c(Cl)c3)c2c1 [Example 58, N-(4-((3-Chloro-4-((3-fluorobenzyl)oxy)phenyl)amino)-3-cyanoquinolin-6-yl)acetamide] | IC50 (EGFR (L858R) [2]; [3]): > 10000 nM
– | – | 1 to 99 nM | 1 to 99 nM | COc1cc2ncnc(Nc3ccc(OCc4cccc(F)c4)c(Cl)c3)c2cc1NC(=O)C1CSSC1 [Example 110, N-(4-((3-Chloro-4-((3-fluorobenzyl)oxy)phenyl)amino)-7-methoxyquinazolin-6-yl)-1,2-dithiolane-4-carboxamide] | –
1 to 99 nM | 1 to 99 nM | 1 to 99 nM | – | CCOc1cc2ncc(C#N)c(Nc3ccc(F)c(Cl)c3)c2cc1NC(=O)C1CCSS1 (stereo not shown) [Example 33, N-(4-((3-Chloro-4-fluorophenyl)amino)-3-cyano-7-ethoxyquinolin-6-yl)-1,2-dithiolane-3-carboxamide] | –
1 to 99 nM | 1 to 99 nM | 1 to 99 nM | 100 to 999 nM | N#Cc1cnc2cc(OC[C@H](O)CO)c(NC(=O)CC3CCSS3)cc2c1Nc1ccc(OCc2cccc(F)c2)c(Cl)c1 (stereo partly drawn) [Example 82, N-(4-((3-Chloro-4-((3-fluorobenzyl)oxy)phenyl)amino)-3-cyano-7-((R)-2,3-dihydroxypropoxy)quinolin-6-yl)-2-(1,2-dithiolan-3-yl)acetamide] | Kd (EGFR E746-A750del): 1 to 99 nM; IC50 (HER2): 100 to 999 nM; Kd (EGFR L858R/T790M): > 10000 nM; Kd (EGFR S752-I759del): 1 to 99 nM
1 to 99 nM | 1 to 99 nM | 1 to 99 nM | 100 to 999 nM | N#Cc1cnc2cc(OC[C@H](O)CO)c(NC(=O)C[C@H]3CCSS3)cc2c1Nc1ccc(OCc2cccc(F)c2)c(Cl)c1 [Example 81, N-(4-((3-Chloro-4-((3-fluorobenzyl)oxy)phenyl)amino)-3-cyano-7-((R)-2,3-dihydroxypropoxy)quinolin-6-yl)-2-(1,2-dithiolan-3S-yl) acetamide] | Kd (EGFR E746-A750del): 1 to 99 nM; IC50 (HER2): 100 to 999 nM; Kd (EGFR L858R/T790M): > 10000 nM; Kd (EGFR S752-I759del): 1 to 99 nM
– | – | 100 to 999 nM | – | CCOc1cc2ncc(C#N)c(Nc3ccc(F)c(Cl)c3)c2cc1NC(=O)CC1CCSS1 (stereo not shown) [Example 39, N-(4-((3-Chloro-4-fluorophenyl)amino)-3-cyano-7-ethoxyquinolin-6-yl)-2-(1,2-dithiolan-3-yl)acetamide] | –
– | – | 100 to 999 nM | 100 to 999 nM | COc1cc2ncnc(Nc3ccc(Oc4ccc(C)nc4)c(C)c3)c2cc1NC(=O)C1CSSC1 [Example 104, N-(7-Methoxy-4-((3-methyl-4-((6-methylpyridin-3-yl)oxy)phenyl)amino)quinazolin-6-yl)-1,2-dithiolane-4-carboxamide] | IC50 (HER2): 100 to 999 nM
– | – | 1 to 99 nM | 100 to 999 nM | CC(=O)SCC(CSC(C)=O)C(=O)Nc1ccc2ncc(C#N)c(Nc3ccc(OCc4cccc(F)c4)c(Cl)c3)c2c1 [Example 60, S,S′-(2-((4-((3-Chloro-4-((3-fluorobenzyl)oxy)phenyl)amino)-3-cyanoquinolin-6-yl)carbamoyl)propane-1,3-diyl)diethanethioate] | –
– | – | 1 to 99 nM | – | CCOc1cc2ncc(C#N)c(Nc3ccc(OCc4cccc(F)c4)c(Cl)c3)c2cc1NC(=O)CCCCC1CCSS1 (stereo not shown) [Example 44] | –
1 to 99 nM | 1 to 99 nM | – | – | CC(=O)SCC(CSC(C)=O)C(=O)Nc1cc2c(Nc3ccc(OCc4cccc(F)c4)c(Cl)c3)c(C#N)cnc2cc1OC[C@H](O)CO [Example 94, (R)—S,S′-(2-((4-((3-Chloro-4-((3-fluorobenzyl)oxy)phenyl)amino)-3-cyano-7-(2,3-dihydroxypropoxy)quinolin-6-yl)carbamoyl)propane-1,3-diyl)diethanethioate] | –
– | – | 1 to 99 nM | 1 to 99 nM | COc1cc2ncnc(Nc3ccc(OCc4cccc(F)c4)c(Cl)c3)c2cc1NC(=O)C(CSC(C)=O)CSC(C)=O [Example 109, S,S′-(2-((4-((3-Chloro-4-((3-fluorobenzyl)oxy)phenyl)amino)-7-methoxyquinazolin-6-yl)carbamoyl)propane-1,3-diyl)diethanethioate] | –
– | – | 100 to 999 nM | 100 to 999 nM | CCOc1cc2ncc(C#N)c(Nc3ccc(F)c(Cl)c3)c2cc1NC(=O)C1CSSC1 [Example 31, N-(4-((3-Chloro-4-fluorophenyl)amino)-3-cyano-7-ethoxyquinolin-6-yl)-1,2-dithiolane-4-carboxamide] | IC50 (HER2): 100 to 999 nM
– | – | 1000 to 10000 nM | – | CCOc1cc2ncc(C#N)c(Nc3ccc(F)c(Cl)c3)c2cc1NC(=O)CC(CCSCc1ccccc1)SCc1ccccc1 (stereo not shown) [Example 38, 3,5-Bis(benzylthio)-N-(4-((3-chloro-4-fluorophenyl)amino)-3-cyano-7-ethoxyquinolin-6-yl)pentanamide] | –
– | – | – | – | Cc1ccc(Oc2ccc(Nc3c(C#N)cnc4ccc(NC(=O)CC5CCSS5)cc34)cc2C)cn1 (stereo not shown) [Example 55, N-(3-Cyano-4-((3-methyl-4-((6-methylpyridin-3-yl)oxy)phenyl)amino)quinolin-6-yl)-2-(1,2-dithiolan-3-yl)acetamide] | IC50 (EGFR (L858R) [2]; [3]): > 10000 nM; IC50 (EGFR WT; read-out: IC50 Activity level EGFR WT, KinaseSeeker, Table 18): > 10000 nM; IC50 (HER2; read-out: IC50 Activity level HER2, KinaseSeeker, Table 18): > 10000 nM
1 to 99 nM | 1 to 99 nM | – | – | CC1(C)OC[C@H](COc2cc3ncc(C#N)c(Nc4ccc(OCc5cccc(F)c5)c(Cl)c4)c3cc2NC(=O)C[C@@H]2CCSS2)O1 (single isomer, unassigned; isomer 1) [80 isomer 1] | –
1 to 99 nM | 1 to 99 nM | – | – | CC1(C)OC[C@@H](COc2cc3ncc(C#N)c(Nc4ccc(OCc5cccc(F)c5)c(Cl)c4)c3cc2NC(=O)CC2CCSS2)O1 (single isomer, unassigned; isomer 1) [84 isomer 1] | –
1 to 99 nM | 1 to 99 nM | – | – | CC1(C)OC[C@H](COc2cc3ncc(C#N)c(Nc4ccc(OCc5cccc(F)c5)c(Cl)c4)c3cc2NC(=O)C[C@H]2CCSS2)O1 (single isomer, unassigned; isomer 2) [80 isomer 2] | –
– | – | 100 to 999 nM | 100 to 999 nM | CCOc1cc2ncc(C#N)c(Nc3ccc(F)c(Cl)c3)c2cc1NC(=O)CCCCC1CCSS1 (stereo not shown) [Example 42, N-(4-(3-Chloro-4-fluorophenylamino)-3-cyano-7-ethoxyquinolin-6-yl)-5-(1,2-dithiolan-3-yl)pentanamide] | IC50 (HER2): 100 to 999 nM

SMILES | Kd (EGFR (L858R) [1]) | Kd (EGFR WT (wild type EGFR)) | IC50 (EGFR (L858R) [2]) | IC50 (EGFR WT) | other results
CCOc1cc2ncc(C#N)c(Nc3ccc(OCc4cccc(F)c4)c(Cl)c3)c2cc1NC(=O)C(CSC(C)=O)CSC(C)=O [Example 34] | 1 to 99 nM | 1 to 99 nM | 1 to 99 nM | 100 to 999 nM | Kd (EGFR E746-A750del): 100 to 999 nM; IC50 (HER2): 100 to 999 nM; Kd (EGFR L858R/T790M): > 10000 nM; Kd (EGFR S752-I759del): 100 to 999 nM
